Results on one compound are retold here after patent publication US20240408214A1, “NANOPARTICULATE MONOBENZONE FOR TREATING MELANOMA” (Northwestern University, priority 2021, published 2024).

The subject of one data set is B16 melanoma cells. Nature of the data set: cells. The note with it: Mus musculus, B16, 24 h, read-out: half-maximum cytotoxicity (IC50) concentration. As to the method:
FIG. 8. […] Free MBEH or lauroyl-MBEH-loaded liposomes were added to B16 melanoma cells in culture. After 24 h, the viability among the remaining cells was measured at different nanoparticle concentrations.

Data set [1] relates to TRP-1+ melanocytes in C57BL/6 skin. In words: Detection of TRP-1+ melanocytes in topically treated mouse skin (FIG. 2). In kind it is in vivo. The note with it: 1.5 M topical for 6 weeks. The text has this: FIG. 2. Melanocytes are undetectable in mouse skin topically treated with MBEH. TRP-1^+ melanocytes (arrows) are detected in control animals but not in C57BL/6 skin treated with 1.5 M MBEH for 6 weeks.

Another data set has as its system B16-F10 tumors. In words: CD8 T cell infiltration in B16-F10 tumors of mice pretreated topically (FIG. 6). In kind it is in vivo, mouse. The note with it: mice pretreated topically with 1.5 M MBEH vs without; n=3, p<0.01.
The test system of data set [2] is B16-F10 mouse melanoma cells. In words: Tumor volumes in mice pretreated topically and challenged with B16-F10 cells (FIG. 1). Format: in vivo. As to conditions: 1.5 M topical for 3 weeks before challenge with 5×10^5 B16-F10 cells; p<0.05.
The subject of data set [3] is Transfected HEK cells and B16-F10 melanoma cells. Nature of the data set: MTT cytotoxicity in HEK cells transfected with melanosomal enzymes and in B16-F10 cells (FIG. 3). In kind it is cell-based. The note with it: 250 μM, 24 h, MTT assay.
Experimental: Transfected HEK cells and B16-F10 melanoma cells were exposed to 250 μM of MBEH for 24 h before cytotoxicity was measured via MTT assay.
The next data set relates to M14 melanoma cells. In words: Change in viable cell numbers of M14 melanoma cells over the treatment period (FIG. 9). The note with it: 100 μM, 24 h, untreated cells gained 96% viable cells. Format: cell-based. Here is the method: FIG. 9. First panel: Single cell functional proteomics data indicates functional heterogeneity when comparing the effects of free and nanoparticulate MBEH on cellular functions among live cells. Adherent M14 melanoma cells were incubated for 24 h with 100 μM of free MBEH (a), nanoparticulate monobenzone with lauroyl MBEH-loaded liposomes (b), MBEH-loaded MOF nanoparticles (c) or vehicle alone (d) before being harvested and loaded into individual wells of the respective Isocode chips (˜30,000 cells/sample) to measure the presence of phosphorylated proteins among individual, live cells by IsoPlexis functional proteomics. […] The decreases in cell-proliferation pathways are even more than those observed in cells that have been exposed to the free MBEH. The individual phosphoproteins measured (results are shown for ˜300 live, single cells per group) are categorized as shown in the legend. The most profound effect on cell signaling was found in presence of long-tailed MBEH. Over the treatment period, untreated cells gained 96% viable cells, whereas cell numbers were reduced by 45, 29 and 1% respectively in response to the free drug, MBEH-loaded MOFs and liposomes loaded with lauroyl MBEH, respectively. Functional heterogeneity among treatments was driven by PARP, P-eIF4α and ribosomal P-S6. Second panel: Viability changes of M14 melanoma cells shown between 24-48 h of treatment. […]

The conditions of data set [4]: cited from earlier work.

As for `Oc1ccc(OCc2ccccc2)cc1` [MBEH, monobenzyl ether of hydroquinone], the IC50 in the data set on B16 melanoma cells was roughly 500 µM. The “TRP-1+ melanocytes in skin” value in data set [1] is reported as “undetectable”. Also, the “number of cytotoxic (CD8) T cells in tumors, enhancement after exposure” value in the data set on B16-F10 tumors was found to be 4.7 fold. Also, the “tumor growth (tumor volumes)” value in data set [2] was “prevents tumor growth”. Moreover, the “cytotoxicity mediated by melanosomal enzymes” value in data set [3] is on record as “All enzymes but MART-1 can mediate cytotoxicity”. In the data set on M14 melanoma cells, the “cell numbers reduced over the treatment period” value came to 45%. The solubility in water entry in data set [4] was “highly insoluble in water”.
